In patent publication US11834663B2, “Fibrotic treatment” (Monash University, priority 2015, dated 2023):

Tests used:
[1] = system: human cardiac fibroblasts (HCFs); assay: Human cardiac fibroblasts stimulated with Ang II: α-SMA and collagen expression; format: cell-based; details: HCFs + Ang II 0.1 μM, HFI-419 0.01 to 1 μM, approx. 72 hours; FIG. 26
Protocol: Commercially available human cardiac fibroblasts (HCF, Catalog #6300, Sciencell, CA, USA) were grown in T75 flask maintained in an incubator at 37° C., 5% CO2. Complete media composition: M199 media (#11150-059, life technologies)+10% FBS (#10437-028, life technologies)+1% Fibroblast Growth Supplement-2 (#2382, ScienCell)+1% penicillin/streptomycin 10,000 U/ml antibiotics (#15140-122, Life Technologies). Fresh complete media was replenished every alternate day until culture reached 70% confluence in which media is replenished daily until it reached approximately 90% confluence in order to passage/subculture. To subculture, media was discarded and culture was rinsed with warm PBS. After which, culture was detached using warm 0.05% Trypsin+EDTA with gentle swirling of flask to make sure cells were not adherent to surface of flask. Trypsin was then neutralized with complete media and suspension was then transferred into a new falcon tube and centrifuged at 1000 rpm for 5 minutes. […]
Once treatment is complete, cells were washed with warm PBS and detached using Accutase (A6964, Sigma), with 5 minutes incubation at 37° C. […] The supernatant (˜20 ul) was transferred to a new tube and protein concentrations were measured using Biorad Lowry protein assay. Protein quantification of respective markers were performed via standard western blot analysis. […]

[2] = system: livers of WT mice on high salt diet; assay: High salt diet-induced liver fibrosis reversal model (Masson's trichrome); format: in vivo, mouse; details: WT mice on 5% NaCl diet 8 weeks, FIG. 28
Protocol: Male C57BL/6J wild type (WT) mice aged approximately 4 to 6 months weighing 30-40 grams were obtained from Monash Animal Research Laboratory. Animals were housed in the Animal House in the Department of Pharmacology, Monash University, in standard cages where they were initially maintained on a normal diet. The housing was maintained at roughly 21° C.±5° C. with mice exposed to a 12 hour light/dark cycle, and access to food and water ad libitum. Experimental procedures undertaken were approved and certified by the School of Biomedical Sciences (SOBS) Animal Ethics Committee of Monash University (2013/118).
A high-salt diet (5% salt) model is a clinically relevant and disease-reversal model which can replicate the high salt intake by humans which is currently a growing problem in the developed countries. High salt intake induces changes in the cardiovascular system and induces remodelling and fibrosis in the heart and liver. […]
Quantification of liver fibrosis was performed using images captured with the Aperio scanner (Monash Histology Platform, Monash University), with ×5 magnification. […] Percentage of interstitial and perivascular collagen was analysed and quantified using ImageJ 1.48 software (Java, NIH), and the percentage from 5 random fields of view were averaged for final percentage of collagen for that particular animal. […]

## CCOC(=O)C1=C(NC(C)=O)Oc2cc(O)ccc2C1c1cccnc1 (stereo not shown) [HFI-419]
[1]
  collagen production in human cardiac fibroblasts: dose-dependently decreased
  myofibroblast expression (α-SMA) in human cardiac fibroblasts: dose-dependently decreased
[2]; HFI-419 0.72 mg/kg/d s.c. for last 4 weeks
  HSD-induced collagen deposition in liver (Masson's trichrome): significantly reversed HSD-induced collagen deposition to the same level seen in mice fed a normal chow diet
[2]; HFI-419 for last 4 weeks
  indicators of steatosis in the liver: markedly reduced
